Entries after “also recorded” stand apart in the source; their conditions may differ. Where two headings read alike, the source gives them in different places.
Tests used:
[1] = tested on: acute infection in rhesus macaque lymphocytes; experiment: cells; conditions: Macaca mulatta, Lymphocyte; for EC90: read-out: Acute infection in rhesus macaque lymphocytes EC90
From the text: (§1) The data (Shown in Table 5 below) are mean and standard deviations from at least three independent experiments.

[2] = tested on: acute infection in rhesus macaque macrophages; experiment: cells; conditions: for EC90: read-out: Acute infection in rhesus macaque macrophages EC90
From the text: as §1

wild-type HIV-1xxLAI = experiment: Antiviral potency in primary human lymphocytes, wild type; type: cell-based; conditions: Human immunodeficiency virus 1, Lymphocyte; xxLAI; primary human lymphocytes; read-out: EC90
HIV-1BaL = experiment: microbe, parasite or virus in culture; conditions: for EC90: read-out: Anti-HIV-1 EC90 in acutely infected MΦ
Experimental: Macrophages were isolated as follows: Monocytes were isolated from buffy coats of HIV-1 negative, HBV/HCV-negative donors with density gradient centrifugation coupled with enrichment for CD14+ monocytes with Rosette Sep antibody cocktail (Stem Cell Technologies, Vancouver, British Columbia). Cells were seeded at a concentration of 1.0×10^6 cells/well for 1 hr at 37° C. and 5% CO2 to confer plastic adherence prior to repeated washes with 1×PBS. Macrophages were maintained in medium containing 100 U/ml macrophage colony-stimulating factor (m-CSF, R&D Systems, Minneapolis, Minn.), supplemented with 20% fetal calf serum (Atlanta Biologicals, Lawrenceville, Ga.) and 1% penicillin/streptomyocin (Invitrogen, Carlsbad, Calif.) for 7 days (37° C., 5% CO2) prior to testing.
Macrophage infections: Macrophages were cultured as described above for 7 days. […] 4 hrs after infection, virus was removed and drug-containing medium was returned to the cultures. Supernatants were collected on day 7 post-infection and HIV-1 p24 was quantified via ELISA (Zeptometrix Corporation, Buffalo, N.Y.). EC50 analysis was performed using CalcuSyn software (BioSoft Corporation, Cambridge, UK).

[3] = tested on: PHA+IL-2 stimulated primary human lymphocytes; experiment: Proliferation and viability of PHA+IL-2 stimulated primary human lymphocytes; type: cell-based; conditions: PHA+IL-2 stimulated lymphocytes, 5 days
Experimental: (§2) The effect of various Jak inhibitors on proliferation and viability of PHA or PHA+IL-2 stimulated primary human lymphocytes was evaluated using the techniques described above.
(§3) For all experiments, cells were incubated with media alone or drug-containing medium for 5 days prior to assessment of cell count and viability. Data are mean and standard deviations for at least three independent experiments conducted with at least 4 pooled donors, and duplicates within each experiment.

HIV-2 = experiment: microbe, parasite or virus in culture; conditions: Human immunodeficiency virus 2, PBMC; for EC90: read-out: Anti-HIV-2 EC90 in acutely infected PBM cells
HIV-1 containing K65R = experiment: microbe, parasite or virus in culture; type: cell-based; conditions: Human immunodeficiency virus 1, Lymphocyte
HIV-1 containing M184V = experiment: microbe, parasite or virus in culture; type: cell-based; conditions: Human immunodeficiency virus 1, Lymphocyte
[4] = tested on: PHA stimulated primary human lymphocytes; experiment: Proliferation and viability of PHA stimulated primary human lymphocytes; type: cell-based; conditions: 5 days, all concentrations
Experimental: as §2, §3

pSTAT1 = conditions: primary CD4+T lymphocytes
integrated viral DNA = experiment: Integrated viral DNA in CD4 T cells from viremic donors (Alu PCR); type: cell-based; conditions: CD4 T cells from HIV-infected individuals; alone and in the presence of HAART
Experimental: (§4) FIGS. 11 A-E are graphicals showing that Jak inhibitors reduce frequency of cells harboring integrated viral DNA and IL-15-induced reactivation of latent HIV-1 in CD4 T cells. CD4 T cells were isolated from viremic donors and incubated with CD3/CD28 plus 0.01, 0.1, 1.0 or 10 μM of Jak inhibitors with or without EC99 of ART (180 nM zidovudine, 100 nM efavirenz, 200 nM Raltegravir) (A and B). After six days, integrated viral DNA was quantified using ultra sensitive Alu PCR versus DMSO controls (n=5). 0.01 μM represents the average of all assays completed using % DMSO equivalent to Jak inhibitor concentrations. Error bars represent S.E.M. and statistical significance determined by two-way ANOVA followed by Sidak's multiple comparison post-test: *p<0.05, **p<0.01, ***p<0.001 and ****p<0.0001 for A and B. In panel C-E, memory CD4^+ T cells were isolated from ART treated aviremic donors (n=3), activated with 10 ng/ml IL-15 (panel D) or CD3/CD28 (panel E) and maintained with or without 1 μM ruxolitinib in the presence of ART. Six days post reactivation, extracellular viral RNA copies were quantified by qRT-PCR (*p<0.01, one-way ANOVA).

HIV-1 containing L74V = experiment: microbe, parasite or virus in culture; type: cell-based; conditions: Human immunodeficiency virus 1, Lymphocyte
[5] = tested on: various NRTI-resistant HIV-1; experiment: Antiviral potency against various NRTI-resistant HIV-1 in primary human lymphocytes (summary over strains); type: cell-based; conditions: K65R, M184V, L74V, A62V/V75I/F77L/F116Y/Q151M, 4xAZT
From the text: FI50 is the ratio of EC50 against mutant virus:EC50 against wild-type xxLAI. FI90 is the ratio of EC90 against mutant virus:EC90 against wild-type xxLAI.

[6] = tested on: HIV-1 containing A62V/V75I/F77L/F116Y/Q151M; experiment: microbe, parasite or virus in culture; type: cell-based; conditions: Human immunodeficiency virus 1, Lymphocyte
latent HIV-1 [7] = experiment: Reactivation of latent HIV-1 in primary human macrophages (PMA, p24 ELISA); type: cell-based; conditions: drug applied during reactivation, removed thereafter, within 72 hr post reactivation
pSTAT5 = conditions: primary CD4+T lymphocytes
HIV-1LAI = experiment: microbe, parasite or virus in culture; conditions: for EC90: read-out: Anti-HIV-1 EC90 in acutely infected PBM cells
From the text: PBM cells were isolated as follows: Lymphocytes were isolated from buffy coats derived from healthy donors obtained from Life South Laboratories (Dunwoody, Ga.). Activated lymphocytes were maintained for 72 hrs in medium that was supplemented with […] phytohemagglutinin (PHA) (Cape Cod associates, East Falmouth, Mass.). Media was comprised of RPMI media supplemented with 20% fetal calf serum, 1% penicillin/streptomyocin and 2% L-glutamine (Sigma Aldrich, San Jose, Calif.).
PBM cell infections: Testing was performed in duplicate with at least 3 independent assays. Cells were incubated in RPMI medium (HyClone, Logan, Utah) containing HR-IL2 (26.5 units/ml) and 20% fetal calf serum. Infections were performed by adding HIV-1LA1 followed by a further incubation at 37° C., 5% CO2, 1 hr prior to addition of drugs. Assays were performed in 24 well plates (BD Biosciences, Franklin Lakes, N.J.). One ml of supernatant was collected after 5 days in culture and then centrifuged at 12,000 rpm for 2 hr at 4° C. in a Jouan Br43i (Thermo Electron Corp., Marietta, Ohio). The product of the RT assay was quantified using a Packard harvester and direct beta counter and the data were analyzed as previously described (Schinazi et al, 1990).

pSTAT3 [8] = conditions: primary CD4+T lymphocytes
latent HIV-1 [9] = experiment: Reactivation of latent HIV-1 in memory CD4+ T cells from ART treated aviremic donors; type: cell-based; conditions: CD4 T cells from HIV-infected individuals; alone and in the presence of HAART
Experimental: as §4

pSTAT3 [10] = experiment: cells; conditions: read-out: EC90 pSTAT3
activated PBM cells = type: cell-based, human
From the text: The data is shown in FIG. 2, in terms of total cell number (10^6 cells) versus aM drug in medium.
The data is shown in FIG. 3, in terms of cell viability (%) versus aM drug in medium.

[11] = tested on: HIV-1 containing 4xAZT (D67N/K70R/T215Y/K219Q); experiment: microbe, parasite or virus in culture; type: cell-based; conditions: Human immunodeficiency virus 1, Lymphocyte
Mφ = experiment: cells; conditions: Homo sapiens, read-out: IC50 in Mφ *MTT Assay
PHA + IL-2 PBM cells = experiment: cells; conditions: Homo sapiens, PBMC, read-out: IC50 in PHA + IL-2 PBM cells *MTT Assay
PHA stimulated PBM cells = experiment: cells; conditions: Homo sapiens, PBMC, read-out: IC50 in PHA stimulated PBM cells *MTT Assay
PBM cells = experiment: cells; conditions: Homo sapiens, PBMC, read-out: IC50 in PBM cells *Propidium Iodide assay
[12] = Human immunodeficiency virus 1, Macrophage, in Homo sapiens
[13] = Human immunodeficiency virus 1, PBMC, in Homo sapiens

SMILES: C[C@@H]1CCN(C(=O)CC#N)C[C@@H]1N(C)c1ncnc2[nH]ccc12 [Tofacitinib, 3-{(3R,4R)-4 methyl-3-[methyl-(7H-pyrrolo[2,3-d]pyrimidin-4-yl)-amino]-piperidin-1-yl}-3-oxo-propionitrile]
- EC90 [1]: 2900 ± 500 nM
- EC90 ([2]; Macaca mulatta, Macrophage): ~4000 nM
- EC90 [2]: 3100 ± 900 nM
- EC90 (wild-type HIV-1xxLAI): 28400 ± 16700 nM
- EC90 (HIV-1BaL; [12]): 2900 ± 1400 nM
- inhibition of HIV-1 replication (HIV-1BaL; MØ cells): sub-micromolar
- proliferation versus cells exposed to media alone ([3]; 1.0 μM): significantly inhibited
- viability versus cells exposed to media alone ([3]; all concentrations): not significantly different
- EC90 (HIV-2): 1800 ± 1100 nM
- EC90 (HIV-1 containing K65R): 81200 ± 26700 nM
- EC90 (HIV-1 containing M184V): 27100 ± 15700 nM
- proliferation versus cells exposed to media alone [4]: not significantly different
- viability versus cells exposed to media alone [4]: not significantly different
- concentrations inhibiting IFN-α induced phosphorylation of STAT1 (pSTAT1): sub-micromolar
- size of the HIV reservoir (integrated viral DNA): decay the size of the HIV reservoir
- EC90 (HIV-1 containing L74V): 47700 ± 45300 nM
- FI50 or FI90 versus wild type HIV-1xxLAI [5]: not significant increase; also recorded: did not display a significant difference
- antiviral potency for wild-type HIV-1xxLAI versus NRTI-resistant HIV-1 [5]: not significantly different
- EC90 [6]: 8900 ± 8800 nM
- percent inhibition of reactivation of latent HIV-1 versus no drug control (latent HIV-1 [7]): ~40%
- concentrations inhibiting IFN-α induced phosphorylation of STAT5 (pSTAT5): sub-micromolar
- EC90 (HIV-1LAI; [13]): 17100 ± 15100 nM
- inhibition of HIV-1 replication (HIV-1LAI; PBM cells): sub-micromolar
- concentrations inhibiting IFN-α induced phosphorylation of STAT3 (pSTAT3 [8]): sub-micromolar
- reservoir reactivation (latent HIV-1 [9]): block reservoir reactivation
- EC90 (pSTAT3 [10]): 900 nM
- total cell proliferation (total cell number) (activated PBM cells): do not affect total cell proliferation
- total cell viability (activated PBM cells): do not affect total cell viability
- EC90 [11]: 17100 ± 4500 nM

SMILES: Cc1cn([C@H]2C[C@H](N=[N+]=[N-])[C@@H](CO)O2)c(=O)[nH]c1=O [AZT, 3′-azido-3′-deoxythymidine]
- EC50 ([1]; read-out: Acute infection in rhesus macaque lymphocytes EC50): 2 ± 1 nM
- EC90 [1]: 30 ± 20 nM
- EC50 ([2]; Macaca mulatta, Macrophage, read-out: Acute infection in rhesus macaque macrophages EC50): 80 ± 100 nM
- EC90 ([2]; Macaca mulatta, Macrophage): 900 ± 700 nM
- EC90 (wild-type HIV-1xxLAI): 100 ± 80 nM
- EC50 (HIV-1BaL; Human immunodeficiency virus 1, Macrophage, in Homo sapiens, read-out: Anti-HIV-1 EC50 in acutely infected MΦ): 10 ± 20 nM
- EC90 (HIV-1BaL; [12]): 70 ± 120 nM
- EC50 (HIV-2; read-out: Anti-HIV-2 EC50 in acutely infected PBM cells): 1 ± 0.8 nM
- EC90 (HIV-2): 10 ± 10 nM
- EC50 (HIV-1 containing K65R): 40 ± 20 nM
- EC90 (HIV-1 containing K65R): 300 ± 100 nM
- EC50 (HIV-1 containing M184V): 10 ± 20 nM
- EC90 (HIV-1 containing M184V): 20 ± 10 nM
- IC50 (Mφ): > 100000 nM
- EC50 (HIV-1 containing L74V): 20 ± 20 nM
- EC90 (HIV-1 containing L74V): 200 ± 100 nM
- CC50 (PHA + IL-2 PBM cells): > 100000 nM
- EC50 [6]: 4600 ± 7700 nM
- EC90 [6]: 41200 ± 50200 nM
- IC50 (PHA stimulated PBM cells): > 100000 nM
- IC50 (PBM cells): > 50000 nM
- EC50 (HIV-1LAI; Human immunodeficiency virus 1, PBMC, in Homo sapiens, read-out: Anti-HIV-1 EC50 in acutely infected PBM cells): 20 ± 8 nM
- EC90 (HIV-1LAI; [13]): 130 ± 30 nM
- EC50 [11]: 100 ± 100 nM
- EC90 [11]: 53300 ± 66100 nM

Reference: patent US20190134039A1, “ANTIVIRAL JAK INHIBITORS USEFUL IN TREATING OR PREVENTING RETROVIRAL AND OTHER VIRAL INFECTIONS” (EMORY UNIVERSITY, priority 2011, published 2019)
